The source of these data is patent publication US7326698B2, “Prostaglandin analogs” (Allergan, Inc., priority 2004, dated 2008).

In assay [1] the target is T1, hEP4/Gqs5 (Homo sapiens, UniProt P35408).
T1 construct: expressed in transfected cells; host or cells: HEK-293(EBNA)
The experiment in a line: FLIPR calcium signal, HEK-293(EBNA) cells. The assay is classed as cell-based. The note with it: read-out: Functional Data (EC50 in nM) hEP4. As to the method: (§1) Methods for FLIPR™ Studies
(§2) HEK-293(EBNA) cells, stably expressing one type or subtype of recombinant human prostaglandin receptors (prostaglandin receptors expressed: hDP/Gqs5; hEP1; hEP2/Gqs5; hEP3A/Gqi5; hEP4/Gqs5; hFP; hIP; hTP), are cultured in 100 mm culture dishes in high-glucose DMEM medium containing 10% fetal bovine serum, 2 mM 1-glutamine, 250 μg/ml geneticin (G418) and 200 μg/ml hygromycin B as selection markers, and 100 units/ml penicillin G, 100 μg/ml streptomycin and 0.25 μg/ml amphotericin B.
(§3) (b) Calcium Signal Studies On the FLIPR™
(§4) Cells are seeded at a density of 5×10^4 cells per well in Biocoat® Poly-D-lysine-coated black-wall, clear-bottom 96-well plates (Becton-Dickinson) and allowed to attach overnight in an incubator at 37° C. Cells are then washed two times with HBSS-HEPES buffer (Hanks Balanced Salt Solution without bicarbonate and phenol red, 20 mM HEPES, pH 7.4) using a Denley Cellwash plate washer (Labsystems). After 45 minutes of dye-loading in the dark, using the calcium-sensitive dye Fluo-4 AM at a final concentration of 2 μM, plates are washed four times with HBSS-HEPES buffer to remove excess dye leaving 100 μl in each well. Plates are re-equilibrated to 37° C. for a few minutes.
(§5) Cells are excited with an Argon laser at 488 nm, and emission is measured through a 510-570 nm bandwidth emission filter (FLIPR™, Molecular Devices, Sunnyvale, Calif.). Drug solution is added in a 50 μl volume to each well to give the desired final concentration. The peak increase in fluorescence intensity is recorded for each well. On each plate, four wells each serve as negative (HBSS-HEPES buffer) and positive controls (standard agonists: BW245C (hDP); PGE2 (hEP1; hEP2/Gqs5; hEP3A/Gqi5; hEP4/Gqs5); PGF2α, (hFP); carbacyclin (hIP); U-46619 (hTP), depending on receptor). The peak fluorescence change in each drug-containing well is then expressed relative to the controls.
(§6) Compounds are tested in a high-throughput (HTS) or concentration-response (CoRe) format. In the HTS format, forty-four compounds per plate are examined in duplicates at a concentration of 10^−5 M. To generate concentration-response curves, four compounds per plate are tested in duplicates in a concentration range between 10^−5 and 10^−11 M. The duplicate values are averaged. In either, HTS or CoRe format each compound is tested on at least 3 separate plates using cells from different passages to give an n≧3.

Assay [2] concerns the target T2, hTP (Homo sapiens, UniProt P21731).
T2 construct: expressed in transfected cells; host or cells: HEK-293(EBNA)
T2 sequence (P21731 1-343): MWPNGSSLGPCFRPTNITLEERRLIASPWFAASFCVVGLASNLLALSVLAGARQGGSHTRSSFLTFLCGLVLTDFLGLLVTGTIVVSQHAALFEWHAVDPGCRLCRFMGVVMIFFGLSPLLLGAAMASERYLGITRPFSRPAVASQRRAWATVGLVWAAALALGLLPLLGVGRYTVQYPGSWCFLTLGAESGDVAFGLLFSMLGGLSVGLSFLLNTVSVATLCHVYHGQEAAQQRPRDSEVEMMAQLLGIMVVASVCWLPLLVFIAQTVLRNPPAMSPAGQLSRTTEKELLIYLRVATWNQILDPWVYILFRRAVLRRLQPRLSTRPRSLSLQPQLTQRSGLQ
The assay is described as follows: FLIPR calcium signal, HEK-293(EBNA) cells. The assay is classed as cell-based. The note with it: read-out: Functional Data (EC50 in nM) hTP. Here is the method: as §1, §2, §3, §4, §5, §6

Assay [3] deals with T3, hEP4 (Homo sapiens, UniProt P35408).
T3 construct: expressed in transfected cells; host or cells: HEK-293 (membrane fraction)
The experiment in a line: Radioligand binding, HEK-293 cells stably expressing EP4 receptor. The note with it: competition vs 5 nM [3H]-PGE2. Here is the method: Cells Stably Expressing EP1, EP2, EP4 and FP Receptors
HEK-293 cells stably expressing the human or feline FP receptor, or EP1, EP2, or EP4 receptors are washed with TME buffer, scraped from the bottom of the flasks, and homogenized for 30 sec using a Brinkman PT 10/35 polytron. TME buffer is added to achieve a final 40 ml volume in the centrifuge tubes (the composition of TME is 100 mM TRIS base, 20 mM MgCl2, […]; 10N HCl is added to achieve a pH of 7.4).
The cell homogenate is centrifuged at 19000 r.p.m. for 20 min at 4° C. using a Beckman Ti-60 rotor. The resultant pellet is resuspended in TME buffer to give a final 1 mg/ml protein concentration, as determined by Biorad assay. Radioligand binding competition assays vs. [^3H-]17-phenyl PGF2[…](5 nM) are performed in a 100 μl volume for 60 min. Binding reactions are started by adding plasma membrane fraction. The reaction is terminated by the addition of 4 ml ice-cold TRIS-HCl buffer and rapid filtration through glass fiber GF/B filters using a Brandel cell harvester. The filters are washed 3 times with ice-cold buffer and oven dried for one hour.
[^3H-] PGE2 (specific activity 180 Ci mmol) is used as the radioligand for EP receptors. [^3H] 17-phenyl PGF2[…]is employed for FP receptor binding studies. […] 17-phenyl PGF2[…]and non-specific binding determined with 10^−5M of unlabeled PGE2, or 17-phenyl PGF2[…], according to receptor subtype studied.

In assay [4] the target is T4, hIP (Homo sapiens, UniProt P43119).
T4 construct: expressed in transfected cells; host or cells: HEK-293(EBNA)
The experiment in a line: FLIPR calcium signal, HEK-293(EBNA) cells. It counts as cell-based. The note with it: read-out: Functional Data (EC50 in nM) hIP. Here is the method: as §1, §2, §3, §4, §5, §6

Assay [5] has as its target T5, hEP3A/Gqi5 (Homo sapiens, UniProt P43115).
T5 construct: expressed in transfected cells; host or cells: HEK-293(EBNA)
T5 sequence (P43115 1-390): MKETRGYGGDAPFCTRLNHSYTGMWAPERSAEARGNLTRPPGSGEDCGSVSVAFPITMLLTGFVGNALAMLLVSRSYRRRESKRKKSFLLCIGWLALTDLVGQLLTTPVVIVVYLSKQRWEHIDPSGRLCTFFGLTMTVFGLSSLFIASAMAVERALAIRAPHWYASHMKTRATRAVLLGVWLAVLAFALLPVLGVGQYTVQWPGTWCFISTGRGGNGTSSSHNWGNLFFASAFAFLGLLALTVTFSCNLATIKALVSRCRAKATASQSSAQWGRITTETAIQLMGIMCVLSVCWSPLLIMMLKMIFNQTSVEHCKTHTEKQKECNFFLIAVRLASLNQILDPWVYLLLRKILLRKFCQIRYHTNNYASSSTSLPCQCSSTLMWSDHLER
The experiment in a line: FLIPR calcium signal, HEK-293(EBNA) cells. The assay is classed as cell-based. The note with it: read-out: Functional Data (EC50 in nM) hEP3A. As to the method: as §1, §2, §3, §4, §5, §6

T1 sequence (P35408 whole entry): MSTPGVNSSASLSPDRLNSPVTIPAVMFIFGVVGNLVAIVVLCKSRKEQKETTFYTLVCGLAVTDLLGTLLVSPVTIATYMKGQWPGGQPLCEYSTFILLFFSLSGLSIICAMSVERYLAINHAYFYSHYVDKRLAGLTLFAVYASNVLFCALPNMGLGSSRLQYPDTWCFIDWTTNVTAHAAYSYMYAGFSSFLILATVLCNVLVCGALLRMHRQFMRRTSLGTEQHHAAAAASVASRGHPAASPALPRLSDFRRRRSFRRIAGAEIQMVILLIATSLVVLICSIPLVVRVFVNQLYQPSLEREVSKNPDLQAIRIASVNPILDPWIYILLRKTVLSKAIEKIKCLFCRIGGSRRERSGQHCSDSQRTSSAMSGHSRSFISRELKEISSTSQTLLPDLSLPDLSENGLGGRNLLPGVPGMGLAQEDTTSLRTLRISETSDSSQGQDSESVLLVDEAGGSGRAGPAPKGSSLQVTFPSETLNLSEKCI
T3 sequence (P35408 whole entry): as above
T4 sequence (P43119 whole entry): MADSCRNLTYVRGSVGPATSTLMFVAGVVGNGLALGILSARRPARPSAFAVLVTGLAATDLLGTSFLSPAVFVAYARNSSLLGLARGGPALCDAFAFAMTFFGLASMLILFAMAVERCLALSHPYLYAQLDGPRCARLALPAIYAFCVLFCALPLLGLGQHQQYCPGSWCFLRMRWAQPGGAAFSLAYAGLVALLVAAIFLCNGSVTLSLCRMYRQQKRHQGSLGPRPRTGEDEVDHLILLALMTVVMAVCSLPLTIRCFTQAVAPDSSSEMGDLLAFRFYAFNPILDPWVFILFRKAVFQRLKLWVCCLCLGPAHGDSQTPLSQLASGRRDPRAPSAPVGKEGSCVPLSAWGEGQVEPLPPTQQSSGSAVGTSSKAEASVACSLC

Usually EC50 stands for the concentration needed to bring the measured effect to its halfway point. On to `COC(=O)CCCCCCN1C(=O)CCCCC1C=CC(O)Cc1ccccc1` (centres unmarked) [drawing 36], for which, in assay [1], the EC50 was greater than 10000 nM.

On to `COC(=O)CCCC#CCN1C(=O)CCCCC1CCC(=O)Cc1ccccc1` (centres unmarked), for which the EC50 in assay [1] is greater than 10000 nM.

On to `COC(=O)CCCC#CCN1C(=O)CCCCC1C=CC(O)Cc1ccccc1` (centres unmarked), for which the EC50 in assay [1] turned out to be 3080 nM. As for `O=C(O)CCCC#CCN1C(=O)CCCCC1CCC(O)Cc1ccccc1` (centres unmarked), the results for the EC50 in assay [2] and in assay [1] were 112 nM and 2000 nM, respectively. Turning to `O=C(O)CCC/C=C\CN1C(=O)CCCCC1C=CC(O)Cc1ccccc1` (centres unmarked), the EC50 in assay [2] stood at 221 nM; in assay [1] it was 266 nM. Take `COC(=O)CCCC#CCN1C(=O)CCCCC1CCC(O)Cc1ccccc1` (centres unmarked): in assay [1], the EC50 is greater than 10000 nM. The IC50 is the concentration at which inhibition is half-maximal. A low value points to greater potency in that assay. Consider `O=C(O)CCC/C=C\CN1C(=O)CCCCC1CCC(O)Cc1ccccc1` (centres unmarked), for which the EC50 in assay [1] was 116 nM. Moreover, the half-inhibitory concentration (IC50) in assay [3] was greater than 10 µM. `COC(=O)CCCCCCN1C(=O)CCCCC1C=CC(O)Cc1ccccc1` (centres unmarked) [drawing 40]: the EC50 in assay [1] is greater than 10000 nM.

Regarding `O=C(O)CCCCCCN1C(=O)CCCCC1CCC(=O)Cc1ccccc1` (centres unmarked), the EC50 in assay [1] is greater than 10000 nM. Consider `COC(=O)CCC/C=C\CN1C(=O)CCCCC1C=CC(O)Cc1ccccc1` (centres unmarked), for which the EC50 in assay [1] is greater than 10000 nM. Same read-out and setting: the figure for `COC(=O)CCCCCCN1C(=O)CCCCC1CCC(=O)Cc1ccccc1` (centres unmarked) is greater than 10000 nM. Still for that read-out and setting: the figure for `O=C(O)CCC/C=C\CN1C(=O)CCCCC1CCC(=O)Cc1ccccc1` (centres unmarked) is greater than 10000 nM; for `COC(=O)CCCC#CCN1C(=O)CCCCC1C=CC(=O)Cc1ccccc1` (centres unmarked) it is greater than 10000 nM; for `O=C(O)CCCC#CCN1C(=O)CCCCC1C=CC(=O)Cc1ccccc1` (centres unmarked) it is greater than 10000 nM. In the case of `O=C(O)CCCC#CCN1C(=O)CCCCC1C=CC(O)Cc1ccccc1` (centres unmarked), the EC50 in assay [2] worked out at 278 nM; in assay [1], 1230 nM. Turning to `O=C(O)CCCCCCN1C(=O)CCCCC1C=CC(=O)Cc1ccccc1` (centres unmarked), the EC50 in assay [1] was greater than 10000 nM. On the same count and under the same terms, the figure for `COC(=O)CCCCCCN1C(=O)CCCCC1C=CC(=O)Cc1ccccc1` (centres unmarked) is greater than 10000 nM. On to `O=C(O)CCCCCCN1C(=O)CCCCC1CCC(O)Cc1ccccc1` (centres unmarked), for which the EC50 was 549 nM in assay [2], 451 nM in assay [1] and 1640 nM in assay [4].

For the molecule `COC(=O)CCCCCCN1C(=O)CCCCC1CCC(O)Cc1ccccc1` (centres unmarked), the EC50 in assay [5] is greater than 10000 nM; in assay [1], 3280 nM.

Take `COC(=O)CCC/C=C\CN1C(=O)CCCCC1CCC(O)Cc1ccccc1` (centres unmarked): the EC50 in assay [1] was 2140 nM. Consider `O=C(O)CCCC#CCN1C(=O)CCCCC1CCC(=O)Cc1ccccc1` (centres unmarked), for which the EC50 in assay [2] amounted to 41 nM; in assay [1] it was 2390 nM. With `O=C(O)CCCCCCN1C(=O)CCCCC1C=CC(O)Cc1ccccc1` (centres unmarked), the EC50 in assay [1] was greater than 10000 nM. Turning to `COC(=O)CCC/C=C\CN1C(=O)CCCCC1CCC(=O)Cc1ccccc1` (centres unmarked), in assay [1], the EC50 came out at 13300 nM. The molecule further displayed an IC50 in assay [3] greater than 10 µM.
